In ChEMBL document CHEMBL1143084, “Synthesis and structure based optimization of novel Akt inhibitors” (Bioorg Med Chem Lett, 2008):

Tested on: not listed separately
Test: Inhibition of PKA
Conditions: not given
With `N#Cc1c[nH]c2ncnc(N3CC4(CCNCC4)c4ccccc43)c12` the IC50 was 3.6 nM.

Molecular target: T1, RAC-alpha serine/threonine-protein kinase (Homo sapiens, UniProt P31749)
T1 sequence (P31749 whole entry): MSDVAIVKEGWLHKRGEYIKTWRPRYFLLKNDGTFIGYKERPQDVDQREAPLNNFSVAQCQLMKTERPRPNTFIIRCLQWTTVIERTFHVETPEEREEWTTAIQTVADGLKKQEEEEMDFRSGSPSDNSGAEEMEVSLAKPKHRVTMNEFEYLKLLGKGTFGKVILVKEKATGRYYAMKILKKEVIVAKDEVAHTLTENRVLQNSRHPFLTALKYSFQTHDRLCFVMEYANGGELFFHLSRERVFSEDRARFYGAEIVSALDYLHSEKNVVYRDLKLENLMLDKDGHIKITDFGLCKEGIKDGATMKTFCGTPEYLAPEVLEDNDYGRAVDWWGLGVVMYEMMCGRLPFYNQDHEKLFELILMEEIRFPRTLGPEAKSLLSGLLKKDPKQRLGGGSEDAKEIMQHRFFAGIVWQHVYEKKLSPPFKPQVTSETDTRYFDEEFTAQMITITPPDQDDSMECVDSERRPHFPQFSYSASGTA
Test: Inhibition of AKT1
Conditions: not given
In the case of `N#Cc1c[nH]c2ncnc(N3CC4(CCNCC4)c4ccccc43)c12`, the IC50 is reported as 2.4 nM.
`CN1CCC2(CC1)CN(c1ncnc3[nH]ccc13)c1ccccc12` showed an IC50 of 12.7 nM.
Molecule `Cc1c[nH]c2ncnc(N3CC4(CCNCC4)c4ccccc43)c12` has an IC50 of 4.8 nM.
Work on `c1ccc2c(c1)N(c1ncnc3[nH]ccc13)CC21CCNCC1` yielded an IC50 of 5.3 nM.
In the case of `Cc1nnc(-c2cc(Cl)ccc2Nc2ncnc3[nH]ccc23)[nH]1`, the IC50 is reported as 171 nM.
For `Clc1c[nH]c2ncnc(Nc3ccccc3-c3nnc[nH]3)c12`, the IC50 was 318 nM.
Work on `c1ccc(-c2nnc[nH]2)c(Nc2ncnc3[nH]ccc23)c1` yielded an IC50 of 210 nM.
For `Cn1ccc2c(Nc3ccccc3-c3nnc[nH]3)ncnc21`, the IC50 was > 10000 nM.
For `Fc1ccc2c(c1)C1(CCNCC1)CN2c1ncnc2[nH]ccc12`, the IC50 was 3.1 nM.
`c1nc(N2CCc3nc[nH]c3C2)c2cc[nH]c2n1` showed an IC50 of 294 nM.
For `Cc1c[nH]c2ncnc(Nc3ccccc3-c3nnc[nH]3)c12`, the IC50 was 425 nM.
In the case of `CS(=O)(=O)N1CCC2(CC1)CN(c1ncnc3[nH]ccc13)c1ccc(F)cc12`, the IC50 is reported as 3190 nM.
For `c1ccc(Cc2c[nH]c3ncnc(N4CC5(CCNCC5)c5ccccc54)c23)cc1`, the IC50 was 1330 nM.
`Clc1c[nH]c2ncnc(N3CC4(CCNCC4)c4ccccc43)c12` showed an IC50 of 5.8 nM.
Molecule `CC(=O)N1CCC2(CC1)CN(c1ncnc3[nH]ccc13)c1ccc(F)cc12` has an IC50 of 2790 nM.
For `Cc1nnc(-c2ccc(Cl)cc2Nc2ncnc3[nH]ccc23)[nH]1`, the IC50 was > 10000 nM.
Work on `Clc1ccc2c(c1)C1(CCNCC1)CN2c1ncnc2[nH]ccc12` yielded an IC50 of 4.8 nM.

Tested on: not listed separately
Test: Antitumor activity against human myristoylated Akt1-activated rat Rat-1a cells xenografted mouse assessed as tumor growth inhibition at 50 mg/kg, qd, po for 10 days
Type: functional
Conditions: 240 h
Work on `N#Cc1c[nH]c2ncnc(N3CC4(CCNCC4)c4ccccc43)c12` yielded an inhibition in vivo at 50 mg/kg of 68%.

Molecular target: T1, RAC-alpha serine/threonine-protein kinase
Test: Inhibition of AKT1 in human U87 cells after 2 hrs by ELISA
Type: cell-based, U-87MG ATCC
Conditions: not given
`N#Cc1c[nH]c2ncnc(N3CC4(CCNCC4)c4ccccc43)c12` gave an IC50 of 50 nM.
`CN1CCC2(CC1)CN(c1ncnc3[nH]ccc13)c1ccccc12` gave an IC50 of 136 nM.
Work on `Cc1c[nH]c2ncnc(N3CC4(CCNCC4)c4ccccc43)c12` yielded an IC50 of 122 nM.
In the case of `c1ccc2c(c1)N(c1ncnc3[nH]ccc13)CC21CCNCC1`, the IC50 is reported as 96 nM.
In the case of `Fc1ccc2c(c1)C1(CCNCC1)CN2c1ncnc2[nH]ccc12`, the IC50 is reported as 75 nM.
`Clc1c[nH]c2ncnc(N3CC4(CCNCC4)c4ccccc43)c12` gave an IC50 of 64 nM.
Molecule `Clc1ccc2c(c1)C1(CCNCC1)CN2c1ncnc2[nH]ccc12` has an IC50 of 51 nM.
